Assay results as given in paper PMC5867665, “Targeting Multiple Effector Pathways in Pancreatic Ductal Adenocarcinoma with a G-Quadruplex-Binding Small Molecule” (Journal of Medicinal Chemistry, 2018).

System: PANC-1 cells
Assay: BG4 and 53BP1 immunofluorescence microscopy
Type: cell-based, human
From the text: Because many established G4-stabilizing ligands induce transcription and replication-coupled DNA damage in the vicinity of G4-forming sequences,[44] we investigated whether CM03 treatment affects cellular G4 occurrence and/or induces a DNA damage response. To do this, we treated asynchronous PANC-1 cells with CM03 and performed immunofluorescence staining using the G4-specific antibody BG4[18] and an antibody against the DNA damage and double-strand break (DSB) marker 53BP1[45] followed by 3D image construction and analysis. […] This further confirms that CM03 has a direct action at G4 sites to increase G4 stabilization. Consistent with the capability of unresolved endogenous genomic G4 sites[46] and small molecule-stabilized G4s to obstruct DNA replication,[44] a 2-fold increase in the number of 53BP1 foci was only apparent after 24 h treatment with CM03 (11 ± 2 compared to 21 ± 3 53BP1 foci) (Figure 4a,c). To determine if CM03 induced DNA damage directly at G4 sites, we calculated the extent of co-localization between BG4 and 53BP1 foci using object-based image co-localization analysis.
BG4 and 53BP1 immunofluorescence experiments were performed essentially as described,[16],[18] with slight modifications. In brief, 8 × 10^4 PANC-1 cells were seeded overnight on circular no. 1.5 coverslips per well in 12-well plates. Next day, cells were incubated with 400 nM CM03 (or left untreated) in 1 mL of media at 37 °C for 6 and 24 h and then fixed with 4 (v/v) % freshly prepared paraformaldehyde in 1× PBS for 10 min at RT. Coverslips were washed 1× PBS, permeabilized with 0.1% (v/v) Triton-X100 in PBS for 10 min, washed with 1× PBS, and blocked with 2% (w/v) Marvel milk (Premier Foods plc) in PBS for 1 h at 37 °C. After blocking, coverslips were incubated with BG4 (20 nM) at 37 °C for 1 h, washed three times for 5 min with PBST (0.1% (v/v) Tween 20), and then incubated with 37 °C for 1 h with rabbit α-FLAG 1:800 (CST, catalogue no. 2368) and mouse α-53BP1 1:500 (Millipore, catalogue no. MAB2803). […] Fluorescence illumination was with a xenon source and FITC, Cy5, and DAPI fluorescent filter cubes used to image BG4, 53BP1, and the nuclei, respectively. […] See extended methods, immunofluorescence, for the custom protocol designed for the BG4-53BP1 foci quantification and co-localization method. […]
For the putative G4 sequences (PQs) analysis, the occurrence of the canonical G4 motif (G≥3N1-7G≥3+N1-7G3≥N1-7G≥3), as previously defined 2,3, was calculated both in gene promoters (defined as 2 kilobases upstream of the transcription start site (TSS) and 100 bases downstream ) and gene bodies (exons and introns). […]

O=C1c2ccc3c4c(c(NCCN5CCCC5)cc(c24)C(=O)N1CCCN1CCOCC1)C(=O)N(CCCN1CCOCC1)C3=O [CM03, 2,7-bis(3-morpholinopropyl)-4-((2-(pyrrolidin-1-yl)ethyl)amino)benzo[lmn][3,8]phenanthroline-1,3,6,8(2H,7H)-tetraone]
number of nuclear BG4 foci (400 nM CM03, 6 h): 393 ± 13
number of 53BP1 foci (400 nM CM03, 24 h): 21 ± 3
number of nuclear BG4 foci (400 nM CM03, 24 h): 444 ± 39
total BG4 foci per nucleus associated with DNA damage foci (400 nM CM03, 24 h): 1.4%
